The test has as its target T1, human TLR8 (Homo sapiens, UniProt Q9NR97).
T1 sequence (Q9NR97 27-1041): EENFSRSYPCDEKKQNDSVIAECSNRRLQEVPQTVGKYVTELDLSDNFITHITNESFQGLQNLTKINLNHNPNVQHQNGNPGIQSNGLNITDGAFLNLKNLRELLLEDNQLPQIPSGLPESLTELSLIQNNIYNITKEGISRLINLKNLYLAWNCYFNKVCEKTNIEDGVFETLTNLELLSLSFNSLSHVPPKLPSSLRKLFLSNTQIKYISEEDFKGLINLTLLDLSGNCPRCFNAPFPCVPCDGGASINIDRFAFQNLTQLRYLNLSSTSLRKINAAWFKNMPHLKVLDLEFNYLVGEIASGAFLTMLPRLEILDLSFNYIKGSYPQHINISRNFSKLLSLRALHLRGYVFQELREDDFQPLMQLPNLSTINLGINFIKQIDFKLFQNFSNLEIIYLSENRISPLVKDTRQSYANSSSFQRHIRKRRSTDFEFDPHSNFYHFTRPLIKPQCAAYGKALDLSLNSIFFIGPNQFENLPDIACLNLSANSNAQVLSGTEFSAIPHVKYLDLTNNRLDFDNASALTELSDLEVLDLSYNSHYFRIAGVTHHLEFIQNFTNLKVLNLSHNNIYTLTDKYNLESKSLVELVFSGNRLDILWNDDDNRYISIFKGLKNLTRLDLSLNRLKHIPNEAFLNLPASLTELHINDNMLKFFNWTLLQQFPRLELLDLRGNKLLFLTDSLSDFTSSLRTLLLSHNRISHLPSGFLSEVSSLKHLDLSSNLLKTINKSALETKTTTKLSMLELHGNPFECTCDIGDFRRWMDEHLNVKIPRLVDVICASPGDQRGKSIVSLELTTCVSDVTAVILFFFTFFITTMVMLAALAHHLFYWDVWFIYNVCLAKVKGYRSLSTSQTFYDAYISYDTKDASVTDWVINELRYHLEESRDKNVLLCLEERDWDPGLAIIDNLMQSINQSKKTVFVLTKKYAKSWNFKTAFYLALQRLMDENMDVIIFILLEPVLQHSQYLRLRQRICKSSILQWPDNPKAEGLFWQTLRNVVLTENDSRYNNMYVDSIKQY
Description: HEK293-Blue-hTLR-8 cells assay (SEAP reporter, R848 stimulation). The test is classed as cell-based. The following applies: HEK293-Blue-hTLR8 cells, R848, 20 hrs; 0.003 is the lowest tested concentration; read-out: HEK/hTLR8 IC50. The essentials: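 Antagonist mode: HEK293-Blue-hTLR8 cells at 250,000–450,000 cells/mL in DMEM with 10% FBS were treated with serially diluted compound (1% DMSO final) plus R848 (10 µL of 60 µM stock) for 20 h at 37 °C. NF-κB/AP-1-driven SEAP in supernatant measured with QUANTI-Blue, 2 h at 37 °C, absorbance 620–655 nm.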

Molecules are shown by their SMILES.

Take `C[C@@H]1CN(c2ccc(C#N)c3ncccc23)C[C@H](CN2CCc3nc(N4CCNCC4)ccc3C2)O1` [Example 79, 5-[(2R,6S)-2-methyl-6-[(2-piperazin-1-yl-7,8-dihydro-5H-1,6-naphthyridin-6-yl)methyl]morpholin-4-yl]quinoline-8-carbonitrile]: the IC50 is 0.004 µM. The figure for `C[C@@H]1CN(c2ccc(C#N)c3ncccc23)C[C@H](CN2Cc3ccc(N4CCNCC4)nc3C2)O1` [Example 80, 5-[(2R,6S)-2-methyl-6-[(2-piperazin-1-yl-5,7-dihydropyrrolo[3,4-b]pyridin-6-yl)methyl]morpholin-4-yl]quinoline-8-carbonitrile] is below 0.003 µM; for `C[C@@H]1CN(c2ccc(C#N)c3ncccc23)C[C@H](CN2Cc3ccc(N4CCNC[C@@H]4CO)cc3C2)O1` [Example 82, 5-[(2S,6R)-2-[[5-[(2R)-2-(hydroxymethyl)piperazin-1-yl]isoindolin-2-yl]methyl]-6-methyl-morpholin-4-yl]quinoline-8-carbonitrile] it is 0.014 µM. With `C[C@@H]1CN(c2ccc(C#N)c3ncccc23)C[C@H](CN2Cc3ccc(N4CCNC[C@H]4CO)cc3C2)O1` [Example 83, 5-[(2S,6R)-2-[[5-[(2S)-2-(hydroxymethyl)piperazin-1-yl]isoindolin-2-yl]methyl]-6-methyl-morpholin-4-yl]quinoline-8-carbonitrile], the IC50 is 0.02 µM.

`C[C@@H]1CN(c2ccc(C#N)c3nccnc23)C[C@H](CNCc2ccc(N3CCNCC3)cc2)O1` [Example 84, 8-[(2R,6S)-2-methyl-6-[[(4-piperazin-1-ylphenyl)methylamino]methyl]morpholin-4-yl]quinoxaline-5-carbonitrile]: the IC50 amounted to 0.022 µM. The figure for `C[C@@H]1CN(c2ccc(C#N)c3ncccc23)C[C@H](CNCc2ccc(N3CCNCC3)cc2)O1` [Example 86, 5-[(2R,6S)-2-methyl-6-[[(4-piperazin-1-ylphenyl)methylamino]methyl]morpholin-4-yl] quinoline-8-carbonitrile] is 0.026 µM; for `C[C@@H]1CN(c2ccc(C#N)n3nccc23)C[C@H](CN2CCc3cnccc3C2)O1` [Example R1, 4-[(2S,6R)-2-(3,4-dihydro-1H-2,6-naphthyridin-2-ylmethyl)-6-methyl-morpholin-4-yl]pyrazolo[1,5-a]pyridine-7-carbonitrile, reference compound] it is 0.118 µM.

With `C[C@@H]1CN(c2ccc(C#N)n3nccc23)C[C@H](CN2Cc3ccncc3C2)O1` [Example R2, 4-[(2S,6R)-2-(1,3-dihydropyrrolo[3,4-c]pyridin-2-ylmethy1)-6-methyl-morpholin-4-yl]pyrazolo[1,5-a]pyridine-7-carbonitrile, reference compound], the IC50 was determined as 0.784 µM. The figure for `C[C@@H]1CN(c2ccc(C#N)c3ncccc23)C[C@H](CN2Cc3ccccc3C2)O1` [Example R3, 5-[(2S,6R)-2-(isoindolin-2-ylmethyl)-6-methyl-morpholin-4-yl]quinoline-8-carbonitrile, reference compound] is 0.146 µM.

Values taken from patent EP3623369A1, “NOVEL MORPHOLINYL AMINE COMPOUNDS FOR THE TREATMENT OF AUTOIMMUNE DISEASE” (F. Hoffmann-La Roche AG, priority 2018, dated 2020).
